Columns and labels:
[1] = system: hippocampal neurogenesis (Dentate Gyrus); assay: in vivo neurogenesis assay (BrdU+ cells in dentate gyrus); design: species or system mice; conditions: living mice; vehicle (DMSO) 7.3
In short: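 New hippocampal cells were tracked by daily BrdU injections and anti-BrdU staining of brain sections. Adult mice (two per pool of ten compounds) got week-long intracerebroventricular infusion by mini-pump, dosed for mid-nanomolar exposure.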

[2] = biological target: T1, p70 (NAMPT) (Homo sapiens, UniProt P43490); assay: binding competition for photo-crosslinking of P7C3-S326 to p70 in H2122 cells; conditions: 0.3 μM P7C3-S326 plus 5 μM competitor, p70 band intensity, P7C3-S326 alone compared with plus competitor, vehicle 1.0
T1 construct: endogenous in cells; host or cells: H2122 lung cancer cells
In short: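 Competition for photo-crosslinking: P7C3 analogs (5 uM) were added alongside the 0.3 μM P7C3-S326 probe to H2122 cells for 2 hours before 15 minutes of 306 nm UV irradiation. In-gel fluorescence of the p70 band after click labeling was normalized to DMSO.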

T1 sequence (P43490 whole entry): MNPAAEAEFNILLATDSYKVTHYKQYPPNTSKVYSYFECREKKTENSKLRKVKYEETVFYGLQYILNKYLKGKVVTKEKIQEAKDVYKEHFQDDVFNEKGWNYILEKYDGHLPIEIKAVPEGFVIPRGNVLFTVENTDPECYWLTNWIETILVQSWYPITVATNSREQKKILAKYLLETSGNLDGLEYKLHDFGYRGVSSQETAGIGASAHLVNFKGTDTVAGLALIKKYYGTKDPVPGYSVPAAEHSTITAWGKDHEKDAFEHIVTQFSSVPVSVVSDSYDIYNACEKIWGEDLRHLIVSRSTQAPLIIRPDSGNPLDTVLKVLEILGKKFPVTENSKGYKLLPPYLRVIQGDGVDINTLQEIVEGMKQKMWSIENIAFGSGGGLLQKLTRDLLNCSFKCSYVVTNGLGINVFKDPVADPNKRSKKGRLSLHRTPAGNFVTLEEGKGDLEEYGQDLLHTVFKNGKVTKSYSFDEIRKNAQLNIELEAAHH

SMILES	Neurogenesis # BrdU+ Cells (X10E06)/mm3 Dentate Gyrus [1]	Binding competition [2]
O=S(=O)(CC(O)Cn1c2ccc(Br)cc2c2cc(Br)ccc21)c1cccc(O)c1 (centres unmarked) [S93]	11.9 (X10E06)/mm3	1.4
OC(COc1ccccc1)Cn1c2ccc(Br)cc2c2cc(Br)cnc21 (centres unmarked) [S187]	12.6 (X10E06)/mm3	2.9
CN1CCN2c3ncccc3Cc3ccccc3C2C1 (centres unmarked) [S126, Remeron, reference compound]	8.8 (X10E06)/mm3	1.3
NC(=O)c1ccc2[nH]c3ccc(Br)cc3c2c1 [S223]	7.9 (X10E06)/mm3	3.0
FC(COc1ccccc1)Cn1c2ccc(Br)cc2c2cc(Br)ccc21 (centres unmarked) [S42]	11.7 (X10E06)/mm3	1.7
NC(Cc1c[nH]c2ccc(Br)cc12)C(=O)O (centres unmarked) [S207]	16.2 (X10E06)/mm3	1.1
O=C(O)c1ccc2c(c1)c1cc(Br)ccc1n2CC(O)COc1ccccc1 (centres unmarked) [S153]	10.7 (X10E06)/mm3	1.4
CCOC(=O)C1=C[C@]2(CC)CCCN3CCc4c(n1c1ccccc41)[C@@H]32 [S199]	13.3 (X10E06)/mm3	1.1
OC(COc1ccccc1)Cn1c2c(c3cc(Br)ccc31)CN(C1CC1)CC2 (centres unmarked) [S106]	10.9 (X10E06)/mm3	1.4
OC(CNc1cccc2ccccc12)Cn1c(-c2ccccc2)cc2ccccc21 (centres unmarked) [S185]	12.6 (X10E06)/mm3	1.5
OC(CNc1ccccc1)CN(c1ccc(Br)cc1)c1ccc(Br)cc1 (centres unmarked) [S72]	11.7 (X10E06)/mm3	1.4
NCC(O)Cn1c2ccc(Br)cc2c2cc(Br)ccc21 (centres unmarked) [S20]	12.7 (X10E06)/mm3	1.3
CCOC(=O)c1cc2c(cn1)[nH]c1ccc(Br)cc12 [S205]	14.6 (X10E06)/mm3	2.5
CCOC(=O)Cn1c2ccc(Br)cc2c2cc(Br)ccc21 [S164]	7.6 (X10E06)/mm3	1.3
OC(CSc1ccccc1)CN1c2ccccc2CCc2ccccc21 (centres unmarked) [S134]	9.7 (X10E06)/mm3	1.9
OC(COc1ccccc1)Cn1c2ccc(Br)cc2c2cccnc21 (centres unmarked) [S186]	8.1 (X10E06)/mm3	3.4
COc1ccc(SCC(F)Cn2c3ccc(Br)cc3c3cc(Br)ccc32)cc1 (centres unmarked) [S80]	13.0 (X10E06)/mm3	0.9
CN(C)C(CF)CN1c2ccccc2CCc2ccccc21 (centres unmarked) [S149]	11.6 (X10E06)/mm3	1.2
O=C(COc1ccc(NCC(F)Cn2c3ccc(Br)cc3c3cc(Br)ccc32)cc1)NCCO (centres unmarked) [S71]	7.2 (X10E06)/mm3	3.1
O=C(COc1cccc(SCC(O)Cn2c3ccc(Br)cc3c3cc(Br)ccc32)c1)NCc1ccccc1 (centres unmarked) [S98]	6.9 (X10E06)/mm3	1.1

SMILES	Neurogenesis # BrdU+ Cells (X10E06)/mm3 Dentate Gyrus [1]	Binding competition [2]
O=C(COc1ccc(SCC(O)Cn2c3ccc(Br)cc3c3cc(Br)ccc32)cc1)NCc1ccccc1 (centres unmarked) [S99]	7.6 (X10E06)/mm3	2.5
COc1ccc([C@H](CN(C)C)C2(O)CCCCC2)cc1 [S124, Effexor, reference compound]	8.9 (X10E06)/mm3	1.1
Cc1c(C)n(CC(O)CNc2ccccc2)c2ccc(Br)cc12 (centres unmarked) [S18]	10.9 (X10E06)/mm3	1.7
N[C@@H](Cc1c[nH]c2ccccc12)C(=O)O [S248]	10.1 (X10E06)/mm3	1.3
OC(CNc1ccccc1)Cn1c2ccc(I)cc2c2cc(I)ccc21 (centres unmarked) [S63]	8.3 (X10E06)/mm3	1.5
OCCn1c2ccc(Br)cc2c2cc(Br)ccc21 [S171]	13.1 (X10E06)/mm3	3.2
CC(O)(COc1ccccc1)Cn1c2ccc(C#N)cc2c2cc(C#N)ccc21 (centres unmarked) [S177]	13.9 (X10E06)/mm3	4.3
O=C(O)c1cc2c3ccccc3n(CC(O)COc3ccccc3)c2cn1 (centres unmarked) [S172]	14.2 (X10E06)/mm3	1.1
[N-]=[N+]=Nc1cccc(NCC(O)Cn2c3ccc(Br)cc3c3cc(Br)ccc32)c1 (centres unmarked) [S36]	8.9 (X10E06)/mm3	3.1
NNCCc1ccccc1 [S116, Nardi, reference compound]	11.0 (X10E06)/mm3	1.2
CC(C(=O)O)n1c2ccc(Br)cc2c2cc(Br)ccc21 (centres unmarked) [S211]	11.5 (X10E06)/mm3	1.2
Nc1ccc(SCC(O)Cn2c3ccc(Br)cc3c3cc(Br)ccc32)cc1 (centres unmarked) [S96]	8.7 (X10E06)/mm3	3.9
COc1cccc(N(CC(O)Cn2c3ccc(Br)cc3c3cc(Br)ccc32)C(C)=O)c1 (centres unmarked) [S9]	11.9 (X10E06)/mm3	2.0
COc1cccc(N(CC(F)Cn2c3ccc(Br)cc3c3cc(Br)ccc32)S(=O)(=O)C(F)(F)F)c1 (centres unmarked) [S241]	15.5 (X10E06)/mm3	1.3
N#CN1CCc2c(c3cc(Br)ccc3n2CC(O)COc2ccccc2)C1 (centres unmarked) [S107]	7.3 (X10E06)/mm3	3.5
COc1cccc(SCC(O)Cn2c3ccc(Br)cc3c3cc(Br)ccc32)c1 (centres unmarked) [S77]	12.0 (X10E06)/mm3	3.3
CCOc1cccc(NCC(O)Cn2c3ccc(Br)cc3c3cc(Br)ccc32)c1 (centres unmarked) [S24]	8.0 (X10E06)/mm3	3.1
CC(C(N)=O)n1c2ccc(Br)cc2c2cc(Br)ccc21 (centres unmarked) [S220]	10.5 (X10E06)/mm3	2.9
OC(COc1ccccc1)Cn1c2c(c3cc(Br)ccc31)CNCC2 (centres unmarked) [S105]	10.8 (X10E06)/mm3	1.2
COc1ccc(S(=O)(=O)CC(O)Cn2c3ccc(Br)cc3c3cc(Br)ccc32)cc1 (centres unmarked) [S84]	12.8 (X10E06)/mm3	1.2

SMILES	Neurogenesis # BrdU+ Cells (X10E06)/mm3 Dentate Gyrus [1]	Binding competition [2]
COc1cccc(NCC(O)CN2c3ccccc3CCc3ccccc32)c1 (centres unmarked) [S158]	12.5 (X10E06)/mm3	1.3
COc1cccc(NC[C@@H](O)Cn2c3ccc(Br)cc3c3cc(Br)ccc32)c1 [S17]	14.9 (X10E06)/mm3	1.9
N#Cc1ccc2[nH]c3ccc(Br)cc3c2c1 [S216]	13.0 (X10E06)/mm3	4.4
COc1c(Br)ccc2c1c1cc(Br)ccc1n2CC(O)CNc1ccccc1 (centres unmarked) [S168]	14.6 (X10E06)/mm3	3.5
CN(C)c1nc(O)c2[nH]c3ccccc3c2n1 [S245]	16.2 (X10E06)/mm3	1.0
CC(C)(O)Cn1c2ccc(Br)cc2c2cc(Br)ccc21 [S169]	9.2 (X10E06)/mm3	3.0
O=C(CCCCCC1SCC2NC(=O)NC21)NCCCCCOc1cccc(NCC(O)Cn2c3ccc(Br)cc3c3cc(Br)ccc32)c1 (centres unmarked) [S219]	8.4 (X10E06)/mm3	3.1
OC(CNc1ncccn1)Cn1c2ccc(Br)cc2c2cc(Br)ccc21 (centres unmarked) [S8]	7.8 (X10E06)/mm3	4.7
COc1cccc(NC[C@H](O)Cn2c3ccc(Br)cc3c3cc(Br)ccc32)c1 [S16]	9.2 (X10E06)/mm3	3.1
COc1cccc(NCC(O)Cn2c3ccccc3c3cc(Br)ccc32)c1 (centres unmarked) [S29]	9.5 (X10E06)/mm3	4.2
COc1ccc2[nH]c3ccc(Br)cc3c2c1 [S209]	15.0 (X10E06)/mm3	3.7
OC(CNc1ccncc1)Cn1c2ccc(Br)cc2c2cc(Br)ccc21 (centres unmarked) [S45]	8.0 (X10E06)/mm3	1.2
OC(CNc1ccccc1)Cn1c2ccc(C3CC3)cc2c2cc(C3CC3)ccc21 (centres unmarked) [S62]	11.8 (X10E06)/mm3	1.2
N#Cc1ccc2c(c1)c1cc(Br)ccc1n2CC(=O)O [S224]	10.1 (X10E06)/mm3	1.3
N#Cc1cc2c(cn1)[nH]c1ccc(Br)cc12 [S221]	14.8 (X10E06)/mm3	2.9
COc1cccc(SCC(F)Cn2c3ccc(Br)cc3c3cc(Br)ccc32)c1 (centres unmarked) [S79]	13.7 (X10E06)/mm3	1.0
CC(=O)NCC(F)Cn1c2ccc(Br)cc2c2cc(Br)ccc21 (centres unmarked) [S218]	9.5 (X10E06)/mm3	3.2
O=C(O)Cn1c2ccc(Br)cc2c2cc(C(=O)O)ccc21 [S239]	11.4 (X10E06)/mm3	0.9

— US9243281B2, “Neuroprotective chemicals and methods for identifying and using same” (Board of Regents of The University of Texas System, priority 2013, dated 2016)
